These are literature values, as cited in patent EP4578441A1, “TREATMENT OF LOCALIZED PAIN” (PlantTec Medical GmbH, priority 2023, dated 2025).

Molecules are shown by their SMILES. Where two headings read alike, the source gives them in different places.

For data set [1] the following is noted: free base.
Data set [2] has as its system volunteers. Conditions: i.v. infusions.

For the compound `CCCN1CCCC[C@H]1C(=O)Nc1c(C)cccc1C` [ropivacaine free base, (S)-1-Propyl-2',6'-dimethyl-2-piperidylcarboxyanilide], the water solubility entry in data set [1] is “weak”.
`CCCN1CCCC[C@H]1C(=O)Nc1c(C)cccc1C` [ropivacaine, (S)-1-Propyl-2',6'-dimethyl-2-piperidylcarboxyanilide]: the “safety of local administration” value was “safe” (dose of 400 mg) and “safe” (dose of 800 mg). Further, the “CNS toxicity threshold, free plasma ropivacaine concentration” value in data set [2] (free plasma concentration) was 0.60 µg/mL. Moreover, in data set [2] (maximum), the “CNS toxicity threshold, free plasma ropivacaine concentration, maximum” value was 0.85 µg/mL. The CNS toxicity threshold, free plasma ropivacaine concentration, minimum in data set [2] (minimum) was 0.34 µg/mL.
